Assays:
[1] = system: c-Myc promoter activation in Myc^GFP NK cells; assay: c-Myc reporter (Myc^GFP) expression in splenic NK cells treated with cytokines; type: cell-based, mouse; settings: FIG. 9H
Protocol: Genes were clustered by functional annotation. […] Equal numbers of Ly49H^+ NK cells from wild type and knockout donors were co-transferred into recipient Ly49H-deficient mice 1 day before infection. […] Anti-XBP1s Ab was used and IgG was used as mock control. FIG. 9H show the representative flow cytometric plots (left) and quantification of c-Myc reporter expression. Before assessment, splenic NK cells from c-Myc reporter mice (Myc^GFP) were treated with indicated cytokines for 16 hours, either in the presence or absence of the IRE1 inhibitor (IRE1i) 4μ8c. […] Equal numbers of Ly49H^+ NK cells from wild type and Myc^NK donors were co-transferred into recipient Ly49H− deficient mice 1 day before infection. […] One sample t-test performed on FIG. 9J. Two tailed unpaired Student's t-test performed on FIG. 9D and FIG. 9G. Two-way analysis of variance (ANOVA) with the Sidak post-test performed on FIGS. 9E, and 9I. […] Each column in FIG. 9B is a different mouse. Data are representative of three (FIGS. 9C-9E and FIG. 9G) and two independent repeats (FIGS. 9F, 9H, 9I and 9J). Data were independently repeated three (FIGS. 9D and 9H) and two (FIGS. 9G-9J). N equals 3 or 4 mice/group in FIG. 9D and FIG. 9J; n equals 3 technical replicates/group in FIG. 9G; n equals 3 replicates/treatment in ex vivo culture in FIG. 9H; n equals 5 mice/group in FIG. 9I. […]

[2] = system: Chop and IRE1α/XBP1 pathway in NK cells; assay: Ex vivo incubation of splenic NK cells with tunicamycin, XBP1 splicing assay and qRT-PCR of UPR genes; type: cell-based, mouse; settings: 4 hours ex vivo incubation, FIG. 3A
Description: The quantitative real time PCR data were presented as relative expression to β-Actin. […] BM NK cells were identified by Lin^−CD122 and splenic NK cells were identified by Lin^−NK1.1^+. Ns indicates “not significant”, * indicates p<0.05, ** indicates p<0.01, *** indicates p<0.001 and **** indicates p<0.0001. Two tailed unpaired Student's t-test performed on FIG. 3A. All error bars show standard deviation. N equals 3 mice/group in FIG. 3A and FIG. 3D. N equals 5 mice/group in FIGS. 3B-3C and FIG. 3F. N equals 10 mice in FIG. 3E. Experiments were independently repeated three (FIGS. 3A-3C and 3E-3F) and two ([…] FIG. 3D) times.
Cells were pre-enriched (Miltenyi Biotec) and then sorted to >95% purity and RNA was isolated using the RNeasy® RNA purification mini (for 5×10^5 cells or beyond) or micro (for <5×10^5 cells) kit (Qiagen) according to the manufacturer's protocol. From purified RNA, cDNA was synthesized using the reverse-transcriptase kit gScript™ cDNA synthesis kit (Quanta Biosciences). Quantitative real time PCR (qRT-PCR) was performed in triplicates in a 384-well plate using Taqman® Probes (Themo Fisher) or SYBR® Green (Quanta Biosciences)-based detection on an ABI QuantStudio™ 6 Flex qRT-PCR machine. For experiments in FIG. 9D, CellDirect™ One-Step qRT-PCR Kit with Rox (Life Technologies) was used according to the manufacturer's instruction. […]

mouse NK cells = assay: Ex vivo expansion of mouse NK cells (Myc^OE and littermate control) with IL-2 and IL-15, CTV dilution; type: cell-based; settings: IL-2 and IL-15 for 3 days, FIG. 15B
Protocol: FIG. 15A-FIG. 15E show the restoration of c-Myc in the absence of IRE1 rescues the NK cell proliferation defect. […] FIG. 15C-FIG. 15E show WT (Myc^fsf/+ IRE1^f/f Ncr1^Cre−), IRE1^NK (Myc^+/+ IRE1^f/f Ncr1^Cre+) Myc^OE (Myc^fsf/+ IRE1^+/+ Ncr1^Cre+) and Myc^OE IRE1^NK (Myc^fsf/+ IRE1^f/f Ncr1^Cre+) NK cells pre-labeled with CTV and cultured ex vivo with IL-2 and IL-15. […] P values are as indicated; ns=not significant. One sample t-test is performed on FIG. 15A. One-way analysis of variance (ANOVA) with the Tukey post-test is performed on FIGS. 15C-15E. All error bars are s.e.m. N=5 mice/group in FIG. 15A, n=2 mice/group in FIG. 15B and n=4 mice/group in FIGS. 15C-15E. […] Experiments in FIGS. 15B-15E were independently repeated three times.
For FIG. 1E, ˜2×10^5 sorted splenic NK cells were stimulated for 16 hr in complete RPMI containing 10% FBS with recombinant mouse IL-2 ([…]; BioLegend), either in the presence or absence of IL-12 (20 ng/ml; Peprotech) and IL-18 (10 ng/ml; R&D Systems). For ex vivo NK cell expansion experiments, 2.5×10^5 sorted NK cells (>97% purity) were stimulated in RPMI supplemented with 10% FBS, penicillin-streptomycin, L-glutamine and β-mercaptoethanol, and with recombinant mouse IL-2 (10 ng/ml; R&D Systems) and IL-15/15R (40 ng/ml; eBioscience) re-applied every other day. […]

primary human NK cells = assay: Ex vivo expansion of primary human NK cells with IL-2 and IL-15, CTV dilution; type: cell-based
Protocol: Equal numbers of NK cells from wild-type and IRE1^NK donors were labelled with cell proliferation tracing dye CTV, and then co-transferred into lymphocyte-lacking recipient Rag2-/-Il2rg-/- mice. Flow cytometric evaluation of NK cell expansion and proliferation was performed in the spleen of recipient mice at day 3-5 after transfer. […] IRE1^NK and IRE1^f/f NK cells from littermate animals were pre-labeled with CTV and cultured ex vivo with IL-2 and IL-15 for the indicated number of days. […] Two-way analysis of variance (ANOVA) with the Sidak post-test performed on FIGS. 7B and 7D. Two tailed unpaired Student's t-test performed on FIG. 7C. One-way analysis of variance (ANOVA) with the Tukey post-test performed on FIG. 7G. Two tailed paired Student's t-test performed on FIGS. 7F, 7I and 7J. All error bars show the standard deviation. Data are representative of three (FIGS. 7B and 7C) and two (FIGS. 7D-7E and 7G-7H) independent repeats. Data in FIGS. 7F, 7I and 7J are pooled from two independent repeats. N equals 2 mice/group in FIG. 7B. N equals 4 mice/group in FIGS. 7C, 7G and 7H. N equals 3 mice/group (and technical duplicates for ex vivo culture) in FIGS. 7D and 7E. N equals 6, 5 and 5 PBMC donors in FIGS. 7F, 7I and 7J. Peripheral blood mononuclear cells (PBMCs) from healthy donors (New York Blood Center) were isolated by density gradient centrifugation with Ficoll (GE Healthcare). […]

human primary NK cells = assay: Metabolic flux assay (oxygen consumption rate) of IL-12 and IL-18 activated human primary NK cells; type: cell-based; settings: IL-12 and IL-18 for 16 hr, inhibitor 5 μM; FIG. 14C
Protocol: Genes were clustered by functional annotation. c-Myc-regulated genes (Morrish and Hockenbery (2014) Cold Spring Harb. Perspect. Med. 4:a014225) are shown in black text on the right. […] Primary human NK cells isolated from PBMC were incubated with IL-12 and IL-18 for 16 hr, in the presence or absence of the IRE1α inhibitor 4μ8C (5 uM). Approximately 600,000 cells were plated per well, and the data were normalized to total protein quantification. Oligo (Oligomycin, 1 μM), FCCP (carbonyl cyanide-p-(trifluoromethoxy) phenylhydrazone, 1 μM), R (rotenone, 0.5 μM) and A (antimycin, 0.5 μM).
Purified human primary NK cells from healthy PBMC donors were stimulated with human recombinant IL-12 and IL-18 for 16 hr in complete RPMI medium, in the presence or absence of IRE1 inhibitor 4μ8C (5 μM). After incubation, NK cells were collected, thoroughly washed and then subjected to Seahorse analyses using non-buffered XF base medium containing 25 mM glucose, 2 mM L-glutamine, and 1 mM sodium Pyruvate but lacking serum. […] 6×10^5 NK cells were plated and OCR measurements were analyzed on an XFe96 Extracellular Flux Analyzer (Agilent). After basal OCR measurements were obtained, an OCR trace was recorded in response to oligomycin (1 μM), carbonyl cyanide-p-(trifluoromethoxy) phenylhydrazone (FCCP, 1 μM), and rotenone and antimycin (0.5 μM each) following the XF Cell Mito Stress test kit (Agilent). […]

Compound: IL-15: recombinant cytokine IL-15
- c-Myc reporter GFP ([1]; Myc^GFP NK cells, 16 hours, in the absence of 4μ8c): c-Myc reporter GFP was induced

Compound: tunicamycin
- Chop expression [2]: strongly triggered Chop expression
- IRE1α/XBP1 pathway [2]: upregulation of the IRE1α/XBP1 pathway

Compound: Cc1cc(=O)oc2c(C=O)c(O)ccc12 [4μ8c, 8-formyl-7-hydroxy-4-methylcoumarin]
- proliferation of NK cells from Myc^OE mice (mouse NK cells; inhibitor 5 μM vs DMSO): proliferated to a comparable extent as in the DMSO-treated control group
- proliferation of NK cells from WT littermates (mouse NK cells; inhibitor 5 μM): impaired in proliferation
- proliferation of CD56^bright versus CD56^dim NK cells (primary human NK cells; IL-2 and IL-15, day 6, FIG. 7I): primarily hindered the proliferation of CD56^bright NK cells
- proliferation of primary human NK cells (primary human NK cells; cultured in IL-2 and IL-15, 5 μM inhibitor vs DMSO, day 6, FIG. 7F): significant reduction in proliferation
- levels of OXPHOS (basal OCR) (human primary NK cells): significantly decreased levels of OXPHOS
- maximal respiration rate (human primary NK cells): reduced maximal respiration rate
- c-Myc reporter GFP induction under IRE1α blockade ([1]; Myc^GFP NK cells stimulated with IL-15, or IL-12 and IL-18, 16 hours): GFP induction was largely impeded
